This passage reports EC50 and IC50 results from patent US10336762B2 (priority 2017, dated 2019).

One experiment concerns TNFα. Briefly: cells. The experiment is classed as cell-based, human. To be noted: Homo sapiens, Monocyte, LPS-stimulated human monocytes, TNFα by TR-FRET; read-out: EC50 TNF. Background: Time-resolved FRET reads energy transfer from a long-lived donor to a nearby acceptor.
A further experiment concerns the target IRAK4 enzyme (Homo sapiens (Human), UniProt Q9NWZ3). Briefly: biochemical. The experiment is classed as biochemical. Particulars: IRAK4 enzyme, TR-FRET, 500 μM ATP.

IRAK4 enzyme, sequence (Q9NWZ3 whole entry): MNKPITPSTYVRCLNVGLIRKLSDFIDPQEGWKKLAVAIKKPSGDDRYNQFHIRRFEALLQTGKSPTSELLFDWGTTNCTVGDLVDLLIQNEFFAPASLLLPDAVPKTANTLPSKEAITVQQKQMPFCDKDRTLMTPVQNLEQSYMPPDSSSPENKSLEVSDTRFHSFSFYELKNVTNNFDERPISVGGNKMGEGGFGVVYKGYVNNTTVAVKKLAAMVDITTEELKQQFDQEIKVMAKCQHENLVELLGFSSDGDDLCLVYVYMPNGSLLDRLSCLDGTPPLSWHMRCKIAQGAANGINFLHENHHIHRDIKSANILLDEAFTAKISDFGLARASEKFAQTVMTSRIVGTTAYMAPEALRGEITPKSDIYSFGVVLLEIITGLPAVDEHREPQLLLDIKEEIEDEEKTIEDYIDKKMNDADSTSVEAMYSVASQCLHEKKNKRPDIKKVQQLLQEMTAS

Consider `CC(=O)NC1CCN(c2ccc(Nc3cc(-c4ccc5cc(C#N)cnn45)ncc3C(=O)NC[C@@H](F)C(C)(C)O)cn2)CC1` [Example 880, (R)-4-((6-(4-acetamido-piperidin-1-yl)pyridin-3-yl)amino)-6-(3-cyano-pyrrolo[1,2-b]pyridazin-7-yl)-N-(2-fluoro-3-hydroxy-3-methylbutyl) nicotinamide], for which the EC50 (commonly the concentration needed to bring the measured effect to its halfway point) with TNFα stood at 58 nM. Moreover, the IC50 – broadly, the midpoint of a concentration-inhibition curve – at IRAK4 enzyme is less than 1 nM.
With `COC(=O)NC1CCN(c2ccc(Nc3cc(-c4ccc5cc(C#N)cnn45)ncc3C(=O)NC[C@@H](F)C(C)(C)O)cn2)CC1` [Example 881, (R)-methyl (1-(5-((2-(3-cyanopyrrolo[1,2-b]pyridazin-7-yl)-5-((2-fluoro-3-hydroxy-3-methylbutyl)carbamoyl)pyridin-4-yl)amino)pyridin-2-yl)piperidin-4-yl)carbamate], the EC50 with TNFα stood at 84 nM. Further, on IRAK4 enzyme, the IC50 is less than 1 nM.
The like results for `CC(C)(O)[C@H](F)CNC(=O)c1cnc(-c2ccc3cc(C#N)cnn23)cc1Nc1cnn([C@@H]2CNC[C@H]2F)c1` [Example 882, 6-(3-cyanopyrrolo[1,2-b]pyridazin-7-yl)-N-((R)-2-fluoro-3-hydroxy-3-methylbutyl)-4-((1-((3R,4R)-4-fluoro-pyrrolidin-3-yl)-1H-pyrazol-4-yl)amino) nicotinamide] were, in that order, 22 nM and less than 1 nM.
Consider `CC(C)(O)[C@H](F)CNC(=O)c1cnc(-c2ccc3cc(C#N)cnn23)cc1Nc1cnn([C@@H]2CNC[C@@H]2F)c1` [Example 883, 6-(3-cyanopyrrolo[1,2-b]pyridazin-7-yl)-N-((R)-2-fluoro-3-hydroxy-3-methylbutyl)-4-((1-((3R,4S)-4-fluoro-pyrrolidin-3-yl)-1H-pyrazol-4-yl)amino) nicotinamide], for which the EC50 with TNFα came out at 90 nM. In addition, at IRAK4 enzyme, the IC50 was less than 1 nM.
`COC[C@@H]1CCCN1c1ccc(Nc2cc(-c3ccc4cc(C#N)cnn34)ncc2C(=O)NC[C@@H](F)C(C)(C)O)cn1` [Example 884, 6-(3-cyanopyrrolo[1,2-b]pyridazin-7-yl)-N-((R)-2-fluoro-3-hydroxy-3-methylbutyl)-4-((6-((S)-2-(methoxymethyl)pyrrolidin-1-yl)pyridin-3-yl)amino)nicotinamide]: the EC50 in the experiment on TNFα turned out to be 29 nM. On IRAK4 enzyme, this compound came in with an IC50 of 2 nM.
In the case of `COC[C@@H]1CCN(c2ccc(Nc3cc(-c4ccc5cc(C#N)cnn45)ncc3C(=O)NC[C@@H](F)C(C)(C)O)cn2)C1` [Example 885, 6-(3-cyanopyrrolo[1,2-b]pyridazin-7-yl)-N-((R)-2-fluoro-3-hydroxy-3-methylbutyl)-4-((6-((R)-3-(methoxymethyl)pyrrolidin-1-yl)pyridin-3-yl)amino) nicotinamide], the EC50 in the experiment with TNFα was 70 nM. Besides, half-maximal inhibition against IRAK4 enzyme (IC50) required 1 nM.
For the compound `CC(=O)NC[C@H]1CN(c2ccc(Nc3cc(-c4ccc5cc(C#N)cnn45)ncc3C(=O)NC[C@@H](F)C(C)(C)O)cn2)CCO1` [Example 886, 4-((6-((S)-2-(acetamido-methyl)morpholino)pyridin-3-yl)amino)-6-(3-cyano-pyrrolo[1,2-b]pyridazin-7-yl)-N-((R)-2-fluoro-3-hydroxy-3-methylbutyl) nicotinamide], the EC50 with TNFα amounted to 29 nM. The midpoint of inhibition against IRAK4 enzyme, the IC50, lay at 2 nM.
Take `COC(=O)NC[C@H]1CN(c2ccc(Nc3cc(-c4ccc5cc(C#N)cnn45)ncc3C(=O)NC[C@@H](F)C(C)(C)O)cn2)CCO1` [Example 887, methyl (((S)-4-(5-((2-(3-cyanopyrrolo[1,2-b]pyridazin-7-yl)-5-(((R)-2-fluoro-3-hydroxy-3-methylbutyl)carbamoyl)pyridin-4-yl)amino)pyridin-2-yl)morpholin-2-yl)methyl)carbamate]: in the experiment on TNFα, the EC50 came out at 88 nM. At IRAK4 enzyme, the midpoint of inhibition, the IC50, lay at 1 nM.
As to `COC(=O)Nc1ccc(Nc2cc(-c3ccc4cc(C#N)cnn34)ncc2C(=O)NC[C@@H](F)C(C)(C)O)cn1` [Example 888, methyl (R)-(5-((2-(3-cyanopyrrolo[1,2-b]pyridazin-7-yl)-5-((2-fluoro-3-hydroxy-3-methylbutyl)carbamoyl)pyridin-4-yl)amino)pyridin-2-yl)carbamate], in the experiment with TNFα, the EC50 was determined as 21 nM. For the same compound, the IC50 at IRAK4 enzyme was less than 1 nM.
Turning to `CC(=O)N1CC[C@H]1CNc1cc(-c2ccc3cc(C#N)cnn23)ncc1C(=O)NC[C@@H](F)C(C)(C)O` [Example 889, 4-((((S)-1-acetylazetidin-2-yl)methyl)amino)-6-(3-cyanopyrrolo[1,2-b]pyridazin-7-yl)-N-((R)-2-fluoro-3-hydroxy-3-methylbutyl)nicotinamide], the EC50 with TNFα turned out to be 436 nM. Also, the IC50 at IRAK4 enzyme came to 9 nM.
With `COC(=O)N1CC[C@H]1CNc1cc(-c2ccc3cc(C#N)cnn23)ncc1C(=O)NC[C@@H](F)C(C)(C)O` [Example 890, (S)-methyl 2-(((2-(3-cyanopyrrolo[1,2-b]pyridazin-7-yl)-5-(((R)-2-fluoro-3-hydroxy-3-methylbutyl)carbamoyl)pyridin-4-yl)amino)methyl)azetidine-1-carboxylate], the EC50 in the experiment on TNFα worked out at 357 nM. On IRAK4 enzyme, the IC50 came to 14 nM.
In the case of `CC(C)(O)[C@H](F)CNC(=O)c1cnc(-c2ccc3cc(C#N)cnn23)cc1NC[C@@H]1CCN1CC(F)(F)F` [Example 891, 6-(3-cyanopyrrolo[1,2-b]pyridazin-7-yl)-N-((R)-2-fluoro-3-hydroxy-3-methylbutyl)-4-((((S)-1-(2,2,2-trifluoroethyl)azetidin-2-yl)methyl)amino)nicotinamide], the EC50 with TNFα is 249 nM. Moreover, the IC50 at IRAK4 enzyme came out at 4 nM.
For `CC(=O)N1CC[C@@H]1CNc1cc(-c2ccc3cc(C#N)cnn23)ncc1C(=O)NC[C@@H](F)C(C)(C)O` [Example 892, 4-((((R)-1-acetylazetidin-2-yl)methyl)amino)-6-(3-cyanopyrrolo[1,2-b]pyridazin-7-yl)-N-((R)-2-fluoro-3-hydroxy-3-methylbutyl)nicotinamide], the 50% effective concentration (EC50) in the experiment on TNFα was found to be 808 nM. For the same compound, half-maximal inhibition at IRAK4 enzyme (IC50) was put at 3 nM.
For the compound `COC(=O)N1CC[C@@H]1CNc1cc(-c2ccc3cc(C#N)cnn23)ncc1C(=O)NC[C@@H](F)C(C)(C)O` [Example 893, (R)-methyl 2-(((2-(3-cyano-pyrrolo[1,2-b]pyridazin-7-yl)-5-(((R)-2-fluoro-3-hydroxy-3-methylbutyl)carbamoyl)pyridin-4-yl)amino)methyl)azetidine-1-carboxylate], the EC50 in the experiment on TNFα came out at 217 nM. Moreover, the midpoint of inhibition against IRAK4 enzyme, the IC50, lay at 2 nM.
For `CC(C)(O)[C@H](F)CNC(=O)c1cnc(-c2ccc3cc(C#N)cnn23)cc1NC[C@H]1CCN1CC(F)(F)F` [Example 894, 6-(3-cyanopyrrolo[1,2-b]pyridazin-7-yl)-N-((R)-2-fluoro-3-hydroxy-3-methylbutyl)-4-((((R)-1-(2,2,2-trifluoroethyl)azetidin-2-yl)methyl)amino)nicotinamide], the EC50 in the experiment with TNFα worked out at 245 nM. Also, the 50% inhibitory concentration (IC50) at IRAK4 enzyme is 7 nM.
Turning to `CC(C)(O)[C@H](F)CNC(=O)c1cnc(-c2ccc3cc(C#N)cnn23)cc1NC1CC2(CNC2)C1` [Example 895, (R)-4-(2-azaspiro[3.3]heptan-6-ylamino)-6-(3-cyanopyrrolo[1,2-b]pyridazin-7-yl)-N-(2-fluoro-3-hydroxy-3-methyl-butyl)nicotinamide], the EC50 in the experiment with TNFα was found to be 1000 nM. Moreover, the IC50 at IRAK4 enzyme was determined as 2 nM.
As for `N#CCNC(=O)c1cnc(-c2ccc3cc(C#N)cnn23)cc1Nc1cnn([C@H]2CCNC2)c1` [Example 896, (S)-N-(cyanomethyl)-6-(3-cyanopyrrolo[1,2-b]pyridazin-7-yl)-4-((1-(pyrrolidin-3-yl)-1H-pyrazol-4-yl)amino) nicotinamide], in the experiment with TNFα, the EC50 worked out at 48 nM. At IRAK4 enzyme, the IC50 was less than 1 nM.
Regarding `COC(=O)N1CC2(CC(Nc3cc(-c4ccc5cc(C#N)cnn45)ncc3C(=O)NC[C@@H](F)C(C)(C)O)C2)C1` [Example 897, (R)-methyl 6-((2-(3-cyano-pyrrolo[1,2-b]pyridazin-7-yl)-5-((2-fluoro-3-hydroxy-3-methylbutyl)carbamoyl)pyridin-4-yl)amino)-2-azaspiro[3.3]heptane-2-carboxylate], the EC50 in the experiment with TNFα was found to be 421 nM. Further, it took 2 nM to reach half-maximal inhibition against IRAK4 enzyme (IC50).
Regarding `CC(C)(O)[C@H](F)CNC(=O)c1cnc(-c2ccc3cc(C#N)cnn23)cc1NC1CC2(C1)CN(CC(F)(F)F)C2` [Example 898, (R)-6-(3-cyanopyrrolo[1,2-b]pyridazin-7-yl)-N-(2-fluoro-3-hydroxy-3-methylbutyl)-4-((2-(2,2,2-trifluoroethyl)-2-aza-spiro[3.3]heptan-6-yl)amino)nicotinamide], in the experiment on TNFα, the EC50 stood at 118 nM. Also, the IC50 at IRAK4 enzyme is less than 1 nM.
Consider `CC(C)(O)[C@H](F)CNC(=O)c1cnc(-c2ccc3cc(C#N)cnn23)cc1NC[C@H]1CCNC1` [Example 899, 6-(3-cyanopyrrolo[1,2-b]pyridazin-7-yl)-N-((R)-2-fluoro-3-hydroxy-3-methylbutyl)-4-((((S)-pyrrolidin-3-yl)methyl)amino)nicotinamide], for which the EC50 in the experiment on TNFα is more than 10000 nM. The compound further showed an IC50 on IRAK4 enzyme of 5 nM.
The like results for `COC(=O)N1CC[C@H](CNc2cc(-c3ccc4cc(C#N)cnn34)ncc2C(=O)NC[C@@H](F)C(C)(C)O)C1` [Example 900, (R)-methyl 3-(((2-(3-cyanopyrrolo[1,2-b]pyridazin-7-yl)-5-(((R)-2-fluoro-3-hydroxy-3-methylbutyl)carbamoyl)pyridin-4-yl)amino)methyl) pyrrolidine-1-carboxylate] were, in that order, 134 nM and 2 nM.
Take `CC(C)(O)[C@H](F)CNC(=O)c1cnc(-c2ccc3cc(C#N)cnn23)cc1NC[C@H]1CCN(CC(F)(F)F)C1` [Example 901, 6-(3-cyanopyrrolo[1,2-b]pyridazin-7-yl)-N-((R)-2-fluoro-3-hydroxy-3-methylbutyl)-4-((((R)-1-(2,2,2-trifluoroethyl)pyrrolidin-3-yl)methyl)amino)nicotinamide]: in the experiment on TNFα, the EC50 came to 126 nM. At IRAK4 enzyme, this compound returned an IC50 of 3 nM.
For `CC(C)(O)[C@H](F)CNC(=O)c1cnc(-c2ccc3cc(C#N)cnn23)cc1NC1CC2(CCNC2)C1` (stereo partly drawn) [Example 902, (R)-4-(6-azaspiro[3.4]octan-2-ylamino)-6-(3-cyanopyrrolo[1,2-b]pyridazin-7-yl)-N-(2-fluoro-3-hydroxy-3-methyl-butyl)nicotinamide], in the experiment on TNFα, the EC50 came to 1230 nM. This compound yielded an IC50 at IRAK4 enzyme of 1 nM.
